The values below come from paper PMC12951562, “SH2scan: Mapping SH2 Domain-Ligand Binding Selectivity for Inhibitors and Degraders” (Journal of Medicinal Chemistry, 2026).

Common to all, as to format: binding
For one test, the target named is T1, LCK (Homo sapiens, UniProt P06239).
T1 construct: the DNA-tagged SH2 domain concentrations used in this study were <0.1 nM; made in house; host or cells: HEK293 (transient transfection, unpurified extract)
The test is described as follows: biochemical. The following applies: read-out: percent of DMSO vehicle control.

The target in the next test is T2, PLCG1(SH2dom.N-term.) (Homo sapiens, UniProt P19174).
T2 construct: SH2dom.N-term. denotes SH2 domain closest to N-terminus of protein; made in house; host or cells: HEK293 (transient transfection, unpurified extract)
T2 sequence (P19174 550-657 limits assumed): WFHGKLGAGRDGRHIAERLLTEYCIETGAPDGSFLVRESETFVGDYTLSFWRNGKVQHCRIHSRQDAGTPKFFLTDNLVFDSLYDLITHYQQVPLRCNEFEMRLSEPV
The test can be described thus: biochemical. The following applies: for remaining activity at 10 µM: read-out: percent of DMSO vehicle control.

The target of a further test is T3, SHC4 (Homo sapiens, UniProt Q6S5L8).
T3 construct: made in house; host or cells: HEK293 (transient transfection), unpurified extract
T3 sequence (Q6S5L8 1-630): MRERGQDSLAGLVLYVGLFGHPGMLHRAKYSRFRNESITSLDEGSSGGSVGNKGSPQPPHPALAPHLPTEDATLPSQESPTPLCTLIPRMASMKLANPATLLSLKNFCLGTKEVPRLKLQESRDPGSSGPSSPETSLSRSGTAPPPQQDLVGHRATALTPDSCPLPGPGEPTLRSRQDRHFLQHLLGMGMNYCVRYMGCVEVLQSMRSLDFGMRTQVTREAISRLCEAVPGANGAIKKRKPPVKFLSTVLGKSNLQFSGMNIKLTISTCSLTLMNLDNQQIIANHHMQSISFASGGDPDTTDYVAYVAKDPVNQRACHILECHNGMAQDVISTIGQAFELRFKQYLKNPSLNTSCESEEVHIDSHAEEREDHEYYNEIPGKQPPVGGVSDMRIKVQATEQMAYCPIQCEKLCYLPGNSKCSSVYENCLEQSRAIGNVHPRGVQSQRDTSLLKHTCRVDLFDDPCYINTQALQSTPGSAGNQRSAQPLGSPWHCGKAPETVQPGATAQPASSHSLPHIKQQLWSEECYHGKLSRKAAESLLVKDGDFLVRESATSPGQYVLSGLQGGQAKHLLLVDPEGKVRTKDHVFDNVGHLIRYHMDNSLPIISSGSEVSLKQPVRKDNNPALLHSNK
The test is described as follows: biochemical. The following applies: read-out: percent of DMSO vehicle control.

The target of another test is T4, CISH (Homo sapiens, UniProt Q9NSE2).
T4 construct: the DNA-tagged SH2 domain concentrations used in this study were <0.1 nM; made in house; host or cells: HEK293 (transient transfection; unpurified extract)
T4 sequence (Q9NSE2 82-163 limits assumed): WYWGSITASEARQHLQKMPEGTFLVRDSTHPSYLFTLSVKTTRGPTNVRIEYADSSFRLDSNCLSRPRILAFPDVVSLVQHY
The test can be described thus: biochemical. The following applies: for remaining activity at 10 µM: read-out: percent of DMSO vehicle control.

In the next test the target is T5, PTPN11(SH2dom.C-term.) (Homo sapiens, UniProt Q06124).
T5 construct: SH2dom.C-term. denotes SH2 domain closest to C-terminus of protein; made in house; host or cells: HEK293 (transient transfection, unpurified extract)
T5 sequence (Q06124 112-216 limits assumed): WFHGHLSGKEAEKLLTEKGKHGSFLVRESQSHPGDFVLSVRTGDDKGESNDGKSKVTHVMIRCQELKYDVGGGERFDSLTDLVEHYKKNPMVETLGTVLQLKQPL
The test is described as follows: biochemical. As to conditions: primary screen, 10 μM.

The next test concerns the target T6, PTPN11(SH2dom.N-term.) (Homo sapiens, UniProt Q06124).
T6 construct: SH2dom.N-term. denotes SH2 domain closest to N-terminus of protein; made in house; host or cells: HEK293 (transient transfection, unpurified extract)
T6 sequence (Q06124 6-102 limits assumed): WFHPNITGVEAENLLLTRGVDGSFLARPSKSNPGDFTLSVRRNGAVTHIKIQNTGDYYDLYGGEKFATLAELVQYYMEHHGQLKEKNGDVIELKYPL
As to conditions: primary screen, 10 μM.

A further test addresses T7, STAT3 (Homo sapiens, UniProt P40763).
T7 construct: made in house; host or cells: HEK293 (transient transfection), unpurified extract
The test is described as follows: biochemical. The following applies: for Kd: dose-response.

Test [1] has as its target T8, STAT3(D661Y)-nonphosphorylated (Homo sapiens, UniProt P40763, D661Y).
T8 construct: made in house; host or cells: HEK293 (transient transfection), unpurified extract, dephosphorylated by endogenous phosphatases
The test can be described thus: biochemical. The following applies: for Kd: dose-response.

Test [2] concerns the target T9, STAT3(E616del)-nonphosphorylated (Homo sapiens, UniProt P40763, DEL616-616).
T9 construct: made in house; host or cells: HEK293 (transient transfection), unpurified extract, dephosphorylated by endogenous phosphatases
The test can be described thus: biochemical. As to conditions: for Kd: dose-response.

Test [3] has as its target T10, STAT3(N567K)-nonphosphorylated (Homo sapiens, UniProt P40763, N567K).
T10 construct: made in house; host or cells: HEK293 (transient transfection), unpurified extract, dephosphorylated by endogenous phosphatases
The test is described as follows: biochemical. As to conditions: for Kd: dose-response.

The target of test [4] is T11, STAT3(N647I)-nonphosphorylated (Homo sapiens, UniProt P40763, N647I).
T11 construct: made in house; host or cells: HEK293 (transient transfection), unpurified extract, dephosphorylated by endogenous phosphatases
The test can be described thus: biochemical. The following applies: for Kd: dose-response.

In test [5] the target is T12, STAT3(S614R)-nonphosphorylated (Homo sapiens, UniProt P40763, S614R).
T12 construct: made in house; host or cells: HEK293 (transient transfection), unpurified extract, dephosphorylated by endogenous phosphatases
The test is described as follows: biochemical. The following applies: for Kd: dose-response.

Another test deals with T13, STAT5A (Homo sapiens, UniProt P42229).
T13 construct: made in house; host or cells: HEK293 (transient transfection), unpurified extract
T13 sequence (P42229 1-794): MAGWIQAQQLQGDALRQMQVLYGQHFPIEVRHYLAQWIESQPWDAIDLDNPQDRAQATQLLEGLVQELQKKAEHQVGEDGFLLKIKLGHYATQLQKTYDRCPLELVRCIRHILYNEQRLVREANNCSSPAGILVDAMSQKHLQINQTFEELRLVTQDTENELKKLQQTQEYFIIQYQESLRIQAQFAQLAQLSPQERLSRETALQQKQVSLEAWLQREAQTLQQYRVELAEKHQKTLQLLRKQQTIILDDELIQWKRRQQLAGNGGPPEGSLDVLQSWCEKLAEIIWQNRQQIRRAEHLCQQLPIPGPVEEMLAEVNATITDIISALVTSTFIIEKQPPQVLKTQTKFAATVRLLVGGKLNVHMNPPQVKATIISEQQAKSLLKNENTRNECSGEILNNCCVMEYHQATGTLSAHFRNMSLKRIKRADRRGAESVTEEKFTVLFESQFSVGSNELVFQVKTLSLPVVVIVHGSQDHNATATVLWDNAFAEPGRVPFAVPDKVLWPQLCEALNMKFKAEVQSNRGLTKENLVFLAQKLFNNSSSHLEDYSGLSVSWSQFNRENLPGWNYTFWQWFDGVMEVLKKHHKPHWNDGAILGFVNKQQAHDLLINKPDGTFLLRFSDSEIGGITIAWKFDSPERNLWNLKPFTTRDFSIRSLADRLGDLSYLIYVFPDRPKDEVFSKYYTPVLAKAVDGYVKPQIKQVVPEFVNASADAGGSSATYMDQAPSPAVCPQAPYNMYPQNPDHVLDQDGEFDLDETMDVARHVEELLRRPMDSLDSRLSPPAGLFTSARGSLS
The test is described as follows: biochemical. The following applies: for Kd: dose-response.

Setting [6] is: read-out: percent of DMSO vehicle control.
Where [7] appears, read: primary screen, 10 μM, read-out: percent of DMSO vehicle control.

Like-named read-outs stand apart in the source and are kept apart here.

What is called Kd is the concentration at which binding is half-saturated. On to `NC(=O)CC[C@H](NC(=O)[C@@H]1CC[C@@H]2CCN(C(=O)CCCCCC#Cc3cccc4c3CN(C3CCC(=O)NC3=O)C4=O)C[C@H](NC(=O)c3cc4cc(C(F)(F)P(=O)(O)O)ccc4[nH]3)C(=O)N21)C(=O)NC(c1ccccc1)c1ccccc1` (stereo partly drawn) [SD-36], for which the percent of DMSO vehicle control at 10 µM at LCK was 97.3 ± 3.9%; on STAT3 (setting [6]) it was 0.1 ± 0.1%; in [1] (setting [6]), 0%; in [2] (setting [6]), 0%; in test [3] (setting [6]) it was 0.1%; in test [4] (setting [6]), 0%. Besides, the percent of DMSO vehicle control at 10 µM was found to be 1.6% in test [5] (setting [6]) and 3.4 ± 0.4% at STAT5A (setting [6]). In addition, the remaining activity at 10 µM amounted to 91.3 ± 4.5% at PLCG1(SH2dom.N-term.), 100 ± 4.5% on SHC4 and 42.8 ± 5.7% at CISH. Moreover, the entries for the “percent of DMSO vehicle control” value at PTPN11(SH2dom.C-term.) and on PTPN11(SH2dom.N-term.) were 104.4±9.8% and 89.9±0.7%, respectively. The Kd was found to be 21 nM at STAT3; 24 ± 12 nM in test [1]; 28 ± 11 nM in test [2]; 30 ± 11 nM in test [3]; 63 ± 23 nM in test [4]; 9.7 ± 4.1 nM in [5]. The compound further returned an equilibrium dissociation constant (Kd) at STAT5A of 1600 ± 670 nM.

On to `CC(C)(C)[C@H](NC(=O)/C=C/c1ccc(OP(=O)(O)O)cc1)C(=O)N1CCC[C@H]1C(=O)N(c1ccccc1)c1ccc(I)cc1` [STAT6-IN-3], for which the remaining activity at 10 µM is 72 ± 20.4% at LCK (primary screen, 10 μM); 32.7 ± 14.4% on PLCG1(SH2dom.N-term.) (primary screen, 10 μM); 90.2 ± 12% on SHC4 (primary screen, 10 μM); 26.8 ± 11.8% at CISH (primary screen, 10 μM); 0.7 ± 0.2% at STAT3 (setting [7]); 4.4 ± 3.7% in test [1] (setting [7]). Moreover, the remaining activity at 10 µM was 0.4 ± 0.4% in [2] (setting [7]); 0.2 ± 0.3% in [3] (setting [7]); 2.1 ± 3.7% in test [4] (setting [7]); 0.1 ± 0.1% in [5] (setting [7]); 0% on STAT5A (setting [7]). Besides, the Kd stood at 3.7 ± 0.33 µM at PLCG1(SH2dom.N-term.) (dose-response, read-out: KD); 4.2 ± 1.1 µM on CISH (dose-response, read-out: KD); 370 ± 162 nM at STAT3 (read-out: KD); 1900 ± 2300 nM in [1] (read-out: KD); 280 ± 120 nM in test [2] (read-out: KD); 500 ± 200 nM in [3] (read-out: KD). Also, the Kd is 1500 ± 750 nM in test [4] (read-out: KD), 140 ± 71 nM in test [5] (read-out: KD) and 46 ± 19 nM on STAT5A (read-out: KD). Besides, the entries for the “percent of DMSO vehicle control” value on PTPN11(SH2dom.C-term.) and on PTPN11(SH2dom.N-term.) were 37.9±11.0% and 73.9±34.6%, respectively.
